Counter-ions that a name gives are not always drawn.
Experiments:
Assay type in all cases: biochemical
Bovine LOX = Bovine LOX (Bos taurus (Bovine), UniProt P33072); experiment: LOX inhibition, Amplex Red oxidation assay; conditions: 30 min preincubation at 37 °C, putrescine substrate
Description: Lysyl oxidase (LOX) is an extracellular copper dependent enzyme which oxidizes peptidyl lysine and hydroxylysine residues in collagen and lysine residues in elastin to produce peptidyl alpha-aminoadipic-delta-semialdehydes. […] There are five LOX family members; these are LOX, LOXL1, LOXL2, LOXL3 and LOXL4. LOX and LOXL family members can be acquired as recombinant active proteins from commercial sources, or extracted from animal tissues like bovine aorta, tendons, pig skin; or prepared from cell cultures. The inhibitory effects of the compounds of the present invention were tested against the given LOX-LOXL preparation using a method based on the detection of hydrogen peroxide with an Amplex Red oxidation assay (Zhou et al. A stable nonfluorescent derivative of resorufin for the fluorometric determination of trace hydrogen peroxide: applications in detecting the activity of phagocyte NADPH oxidase and other oxidases. Anal. Biochem. 1997; 253, 162-168). The assay was developed using either 384 or 96 well format. Briefly, in a standard black, clear bottom 384 well plate assay 25 μL of a dilution of any of the isoenzymes and orthologues in 1.2 M urea, 50 mM sodium borate buffer (pH 8.2) were added into each well in the presence of 1 μM mofegiline and 0.5 mM pargyline (to inhibit SSAO and MAO-B and MAO-A, respectively; not necessary if the enzyme is from a recombinant or purified form). […] Twenty five μL of a reaction mixture containing twice the KM concentration of putrescine (Sigma Aldrich, e.g. 20 mM for LOX, or 10 mM for LOXL2 and LOXL3), 120 μM Amplex Red (Sigma Aldrich) and 1.5 U/mL horseradish peroxidase (Sigma Aldrich) prepared in 1.2 M urea, 50 mM sodium borate buffer (pH 8.2) were then added to the corresponding wells. The above volumes were doubled in the case of 96 wells plate. The fluorescence (RFU) was read every 2.5 min for 30 min at […] 37° C., excitation 565 nm and emission 590 (Optima; BMG labtech). The slope of the kinetics for each well was calculated using MARS data analysis software (BMG labtech) and this value was used to deduce the IC50 value (Dotmatics).

LOXL2 = LOXL2 (Homo sapiens (Human), UniProt Q9Y4K0); experiment: LOXL2 inhibition, Amplex Red oxidation assay; conditions: 30 min preincubation at 37 °C, putrescine substrate
Description: Lysyl oxidase (LOX) is an extracellular copper dependent enzyme which oxidizes peptidyl lysine and hydroxylysine residues in collagen and lysine residues in elastin to produce peptidyl alpha-aminoadipic-delta-semialdehydes. […] There are five LOX family members; these are LOX, LOXL1, LOXL2, LOXL3 and LOXL4. LOX and LOXL family members can be acquired as recombinant active proteins from commercial sources, or extracted from animal tissues like bovine aorta, tendons, pig skin; or prepared from cell cultures. The inhibitory effects of the compounds of the present invention were tested against the given LOX-LOXL preparation using a method based on the detection of hydrogen peroxide with an Amplex Red oxidation assay (Zhou et al. A stable nonfluorescent derivative of resorufin for the fluorometric determination of trace hydrogen peroxide: applications in detecting the activity of phagocyte NADPH oxidase and other oxidases. Anal. Biochem. 1997; 253, 162-168). The assay was developed using either 384 or 96 well format. Briefly, in a standard black, clear bottom 384 well plate assay 25 μL of a dilution of any of the isoenzymes and orthologues in 1.2 M urea, 50 mM sodium borate buffer (pH 8.2) were added into each well in the presence of 1 μM mofegiline and 0.5 mM pargyline (to inhibit SSAO and MAO-B and MAO-A, respectively; not necessary if the enzyme is from a recombinant or purified form). Test compounds were dissolved in DMSO and tested in a Concentration Response Curve (CRC) with 11 data points, typically in the micromolar or nanomolar range after incubation with the enzyme for 30 min at 37° C. Twenty five μL of a reaction mixture containing twice the KM concentration of putrescine (Sigma Aldrich, e.g. 20 mM for LOX, or 10 mM for LOXL2 and LOXL3), 120 μM Amplex Red (Sigma Aldrich) and 1.5 U/mL horseradish peroxidase (Sigma Aldrich) prepared in 1.2 M urea, 50 mM sodium borate buffer (pH 8.2) were then added to the corresponding wells. The above volumes were doubled in the case of 96 wells plate. The fluorescence (RFU) was read every 2.5 min for 30 min at […] 37° C., excitation 565 nm and emission 590 (Optima; BMG labtech). The slope of the kinetics for each well was calculated using MARS data analysis software (BMG labtech) and this value was used to deduce the IC50 value (Dotmatics).

[1] = target: Human recombinant SSAO/VAP-1 (Homo sapiens (Human), UniProt Q16853); experiment: Inhibition of human recombinant SSAO/VAP-1; conditions: 30 min preincubation at 37 °C, benzylamine 600 μM; read-out: SSAO/VAP-1 Activity IC50
Method: Human recombinant SSAO/VAP-1 amine oxidase activity was determined using the coupled colorimetric method as described for monoamine oxidase, copper-containing amine oxidases and related enzymes (Holt A. and Palcic M., A peroxidase-coupled continuous absorbance plate-reader assay for flavin monoamine oxidases, copper-containing amine oxidases and related enzymes. Nat Protoc 2006; 1: 2498-2505). Briefly, a cloned cDNA template corresponding to residues 34-763 of human SSAO/VAP-1, and incorporating a mouse Ig kappa (κ) signal sequence, N-terminal flag epitope tag and tobacco etch virus (TEV) cleavage site, was assembled in a mammalian expression vector (pLO-CMV) by Geneart AG. This vector containing human SSAO/VAP-1 residues was transfected into CHO-Kl glycosylation mutant cell line, Lec 8. A clone stably expressing human SSAO/VAP-1 was isolated and cultured in large scale. Active human SSAO/VAP-1 was purified and recovered using immunoaffinity chromatography. This was used as the source for SSAO/VAP-1 activity. A high-throughput colorimetric assay was developed using either 96 or 384 well format. Briefly, in a standard 96 well plate assay 50 μL of purified human SSAO/VAP-1 (0.25 μg/mL) in 0.1 M sodium phosphate buffer (pH 7.4) was added into each well. Test compounds were dissolved in DMSO and tested in a Concentration Response Curve (CRC) with 4-11 data points, typically in the micromolar or nanomolar range after incubation with human SSAO/VAP-1 for 30 min at 37° C. After 30 min incubation, 50 μL of the reaction mixture containing 600 μM benzylamine (Sigma Aldrich), 120 μM Amplex Red (Sigma Aldrich) and 1.5 U/mL horseradish peroxidase (Sigma Aldrich) prepared in 0.1 M sodium phosphate buffer (pH 7.4) were added to the corresponding well. The fluorescence unit (RFU) was read every 2.5 min for 30 min at 37° C. excitation 565 nm and emission 590 (Optima; BMG labtech). The slope of the kinetics for each well was calculated using MARS data analysis software (BMG labtech) and this value was used to deduce the IC50 value (Dotmatics).

Human recombinant SSAO/VAP-1, sequence (Q16853 34-763): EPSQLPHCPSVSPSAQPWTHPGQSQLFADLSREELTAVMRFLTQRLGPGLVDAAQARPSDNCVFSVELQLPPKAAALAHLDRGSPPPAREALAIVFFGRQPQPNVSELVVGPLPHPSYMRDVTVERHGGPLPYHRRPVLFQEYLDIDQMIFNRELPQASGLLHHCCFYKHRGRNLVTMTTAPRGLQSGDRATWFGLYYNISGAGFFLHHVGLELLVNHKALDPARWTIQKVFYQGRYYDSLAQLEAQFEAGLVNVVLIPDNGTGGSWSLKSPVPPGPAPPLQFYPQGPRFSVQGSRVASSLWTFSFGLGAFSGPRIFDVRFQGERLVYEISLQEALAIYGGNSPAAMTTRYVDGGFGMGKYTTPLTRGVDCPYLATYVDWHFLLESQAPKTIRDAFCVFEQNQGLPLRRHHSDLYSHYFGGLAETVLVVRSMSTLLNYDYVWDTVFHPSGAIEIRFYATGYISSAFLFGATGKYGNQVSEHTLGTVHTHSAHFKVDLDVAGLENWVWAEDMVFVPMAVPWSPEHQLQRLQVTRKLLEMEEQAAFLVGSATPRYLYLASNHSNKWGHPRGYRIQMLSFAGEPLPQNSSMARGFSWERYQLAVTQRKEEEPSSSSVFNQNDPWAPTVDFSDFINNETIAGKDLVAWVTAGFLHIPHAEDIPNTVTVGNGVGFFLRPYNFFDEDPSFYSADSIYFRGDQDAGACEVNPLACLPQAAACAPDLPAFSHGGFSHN
Bovine LOX, sequence (P33072 170-418): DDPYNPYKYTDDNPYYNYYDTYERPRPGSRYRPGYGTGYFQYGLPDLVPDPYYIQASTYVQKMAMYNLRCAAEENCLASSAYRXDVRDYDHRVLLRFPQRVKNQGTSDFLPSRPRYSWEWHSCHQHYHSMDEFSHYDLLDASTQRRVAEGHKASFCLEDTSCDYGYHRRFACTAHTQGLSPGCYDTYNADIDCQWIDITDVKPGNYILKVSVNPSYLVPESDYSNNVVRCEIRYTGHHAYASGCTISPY
LOXL2, sequence (Q9Y4K0 26-774): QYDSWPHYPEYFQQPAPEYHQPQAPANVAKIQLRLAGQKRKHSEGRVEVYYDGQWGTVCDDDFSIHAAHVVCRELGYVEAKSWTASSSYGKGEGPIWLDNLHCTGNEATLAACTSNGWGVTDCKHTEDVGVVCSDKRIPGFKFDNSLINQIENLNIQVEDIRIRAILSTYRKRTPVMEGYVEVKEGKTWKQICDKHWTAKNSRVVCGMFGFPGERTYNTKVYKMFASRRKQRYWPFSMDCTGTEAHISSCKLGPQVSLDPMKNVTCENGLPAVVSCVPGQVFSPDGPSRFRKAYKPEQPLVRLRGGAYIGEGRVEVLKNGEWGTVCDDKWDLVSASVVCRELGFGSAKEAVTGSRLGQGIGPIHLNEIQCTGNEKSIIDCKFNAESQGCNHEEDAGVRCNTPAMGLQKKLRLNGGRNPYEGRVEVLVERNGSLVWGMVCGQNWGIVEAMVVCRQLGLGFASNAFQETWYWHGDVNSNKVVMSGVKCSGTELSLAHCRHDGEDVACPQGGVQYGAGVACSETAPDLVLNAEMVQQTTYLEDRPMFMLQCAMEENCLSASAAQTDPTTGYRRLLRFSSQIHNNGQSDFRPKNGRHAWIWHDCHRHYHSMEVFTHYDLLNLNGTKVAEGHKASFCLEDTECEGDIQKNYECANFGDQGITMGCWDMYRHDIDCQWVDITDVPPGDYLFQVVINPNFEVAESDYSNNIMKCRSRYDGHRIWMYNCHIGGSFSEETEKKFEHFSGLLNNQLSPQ

IC50 (Bovine LOX) [µM]	IC50 (LOXL2) [µM]	SMILES	IC50 [1] [µM]
< 10	< 1	CC(C)c1ccccc1S(=O)(=O)C/C(F)=C/CN [Compound 21, (Z)-3-fluoro-4-(2-isopropylphenylsulfonyl)but-2-en-1-amine hydrochloride]	
< 10	< 1	Cc1[nH]c2c(S(=O)(=O)C/C(F)=C/CN)cccc2c1C [Compound 52, (Z)-4-((2,3-dimethyl-1H-indol-7-yl)sulfonyl)-3-fluorobut-2-en-1-amine hydrochloride]	
< 10	< 1	Cc1ccc(S(=O)(=O)C/C(F)=C/CN)nc1 [Compound 35, (Z)-3-fluoro-4-(5-methylpyridin-2-ylsulfonyl)but-2-en-1-amine dihydrochloride]	
< 10	< 1	COc1ccccc1S(=O)(=O)C/C(F)=C/CN [Compound 22, (Z)-3-fluoro-4-(2-methoxyphenylsulfonyl)but-2-en-1-amine hydrochloride]	
< 10	< 1	Cc1cccnc1S(=O)(=O)C/C(F)=C/CN [Compound 43, (Z)-3-fluoro-4-(3-methylpyridin-2-ylsulfonyl)but-2-en-1-amine dihydrochloride]	
< 10	< 1	CC(C)c1ccc(S(=O)(=O)C/C(F)=C/CN)cn1 [Compound 49, (Z)-3-fluoro-4-(6-isopropylpyridin-3-ylsulfonyl)but-2-en-1-amine dihydrochloride]	
< 10	< 1	Cc1cccc(S(=O)(=O)C/C(F)=C/CN)c1 [Compound 41, (Z)-3-fluoro-4-(m-tolylsulfonyl)but-2-en-1-amine hydrochloride]	
< 10	< 1	NC/C=C(\F)CS(=O)(=O)c1ccccc1-c1ccccc1 [Compound 20, (Z)-4-(biphenyl-2-ylsulfonyl)-3-fluorobut-2-en-1-amine hydrochloride]	
< 10	< 1	Cc1cc(S(=O)(=O)C/C(F)=C/CN)ccn1 [Compound 44, (Z)-3-fluoro-4-(2-methylpyridin-4-ylsulfonyl)but-2-en-1-amine dihydrochloride]	
< 10	< 1	Cc1ncccc1S(=O)(=O)C/C(F)=C/CN [Compound 47, (Z)-3-fluoro-4-(2-methylpyridin-3-ylsulfonyl)but-2-en-1-amine dihydrochloride]	
< 10	< 1	Cc1ccncc1S(=O)(=O)C/C(F)=C/CN [Compound 48, (Z)-3-fluoro-4-(4-methylpyridin-3-ylsulfonyl)but-2-en-1-amine dihydrochloride]	
< 10	< 1	NC/C=C(\F)CS(=O)(=O)c1ccc(F)cc1 [Compound 39, (Z)-3-fluoro-4-(4-fluorophenylsulfonyl)but-2-en-1-amine hydrochloride]	
< 10	< 1	NC/C=C(\F)CS(=O)(=O)c1ccc2ccccc2c1 [Compound 24, (Z)-3-fluoro-4-(naphthalen-2-ylsulfonyl)but-2-en-1-amine hydrochloride]	
< 10	< 1	NC/C=C(\F)CS(=O)(=O)c1ccccc1F [Compound 37, (Z)-3-fluoro-4-(2-fluorophenylsulfonyl)but-2-en-1-amine hydrochloride]	

Second part, the compound before the results:

SMILES	IC50 (Bovine LOX) [µM]	IC50 (LOXL2) [µM]	IC50 [1] [µM]
NC/C=C(\F)CS(=O)(=O)c1cccc2ccccc12 [Compound 23, (Z)-3-fluoro-4-(naphthalen-1-ylsulfonyl)but-2-en-1-amine hydrochloride]	< 10	< 1	> 30
Cc1cccc(S(=O)(=O)C/C(F)=C/CN)n1 [Compound 36, (Z)-3-fluoro-4-(6-methylpyridin-2-ylsulfonyl)but-2-en-1-amine dihydrochloride]	< 10	< 1	
NC/C=C(\F)CS(=O)(=O)c1ccc(Cl)cc1Cl [Compound 25, (Z)-4-(2,4-dichlorophenylsulfonyl)-3-fluorobut-2-en-1-amine hydrochloride]	< 10	< 1	
NC/C=C(\F)CS(=O)(=O)c1ccc(Cl)cc1 [Compound 27, (Z)-4-(4-chlorophenylsulfonyl)-3-fluorobut-2-en-1-amine hydrochloride]	< 10	< 1	
Cc1ccccc1S(=O)(=O)C/C(F)=C/CN [Compound 40, (Z)-3-fluoro-4-(o-tolylsulfonyl)but-2-en-1-amine hydrochloride]	< 10	< 1	
NC/C=C(\F)CS(=O)(=O)c1cccc(Cl)c1 [Compound 26, (Z)-4-(3-chlorophenylsulfonyl)-3-fluorobut-2-en-1-amine hydrochloride]	< 10	< 1	
Cc1nc2c(S(=O)(=O)C/C(F)=C/CN)cccc2s1 [Compound 50, (Z)-3-fluoro-4-((2-methylbenzo[d]thiazol-4-yl)sulfonyl)but-2-en-1-amine hydrochloride]	< 10	< 1	> 30
CC(C)c1ccc(S(=O)(=O)C/C(F)=C/CN)nc1 [Compound 34, (Z)-3-fluoro-4-(5-isopropylpyridin-2-ylsulfonyl)but-2-en-1-amine dihydrochloride]	< 10	< 1	
Cc1ccc(S(=O)(=O)C/C(F)=C/CN)cc1 [Compound 42, (Z)-3-fluoro-4-(p-tolylsulfonyl)but-2-en-1-amine hydrochloride]	< 10	< 1	
[2H]c1nc2c(S(=O)(=O)C/C(F)=C/CN)c([2H])c([2H])c([2H])c2c([2H])c1[2H] [Compound 53, (Z)-3-fluoro-4-((quinolin-8-yl-d6)sulfonyl)but-2-en-1-amine dihydrochloride]			> 30
